Assay results taken from patent publication US20230146455A1, “TREATMENT OF INFLAMMATORY DISEASES WITH PEPTIDES AND PHARMACEUTICAL COMPOSITIONS” (Yuyu Pharma, Inc., priority 2020, published 2023).
Values joined by “and” are separate entries in the source; they are usually repeats but may differ in a detail not shown here. Equal entries are not always repeated. Where a SMILES comes first, the peptide text is derived from it. [ ]: non-standard residue; d: D form. Hyp = O=C(O)[C@@H]1C[C@@H](O)CN1

Test system: IL-17A
Experiment: Example 9 Luminex, LPS hPBMCs: IL-17A
Type: cell-based, human
Experimental: Treatment Human PBMCs were pretreated with YY-101, YDE-011 and YDE-043 or reference compound; Xiidra® at various concentration (ranging from 1 nM to 100 uM) for 2 h before stimulation. An equal volume of 0.5% DMSO was used as a vehicle control. Then, the cells were treated with LPS at 5 ug/ml. The supernatants from treated cells were harvested at 24 h and placed in a 96 well for Luminex cytokine & chemokine profiling using a Luminex 200 multiplex assay (Luminex; R&D system, USA).
The main study arm with triplicate wells per group in a 24-well plate: • 1. Blank • 2. PBMC: 0.5% DMSO • 3. PBMC+LPS (5 ug/ml) • 4. PBMC+YY-101 100 uM • 5. PBMC+YY-101 10 uM • 6. PBMC+YY-101 1 uM • 7. PBMC+YY-101 0.1 uM • 8. PBMC+YY-101 0.01 uM • 9. PBMC+LPS (5 ug/ml)+Xiidra®100 uM • 10. PBMC+LPS (5 ug/ml)+Xiidra® 10 uM • 11. PBMC+LPS (5 ug/ml)+Xiidra® 1 uM • 12. PBMC+LPS (5 ug/ml)+Xiidra®0.1 uM • 13. PBMC+LPS (5 ug/ml)+Xiidra®0.01 uM • 14. PBMC+LPS (5 ug/ml)+Xiidra®0.001 uM • 15. PBMC+LPS (5 ug/ml)+YY-101 100 uM • 16. PBMC+LPS (5 ug/ml)+YY-101 10 uM • 17. PBMC+LPS (5 ug/ml)+YY-101 1 uM • 18. PBMC+LPS (5 ug/ml)+YY-101 0.1 uM • 19. PBMC+LPS (5 ug/ml)+YY-101 0.01 uM • 20. PBMC+LPS (5 ug/ml)+YY-101 0.001 uM • 21. PBMC+LPS (5 ug/ml)+YDE-011 100 uM • 22. PBMC+LPS (5 ug/ml)+YDE-011 10 uM • 23. PBMC+LPS (5 ug/ml)+YDE-011 1 uM • 24. PBMC+LPS (5 ug/ml)+YDE-011 0.1 uM • 25. PBMC+LPS (5 ug/ml)+YDE-011 0.01 uM • 26. PBMC+LPS (5 ug/ml)+YDE-011 0.001 uM • 27. PBMC+LPS (5 ug/ml)+YDE-043 100 uM • 28. PBMC+LPS (5 ug/ml)+YDE-043 10 uM • 29. PBMC+LPS (5 ug/ml)+YDE-043 1 uM • 30. PBMC+LPS (5 ug/ml)+YDE-043 0.1 uM • 31. PBMC+LPS (5 ug/ml)+YDE-043 0.01 uM • 32. PBMC+LPS (5 ug/ml)+YDE-043 0.001 uM
Multiplex assay was used to measure 30 cytokines and chemokines. The 1:2, 1:10 and 1:200 diluted cell supernatant and serial dilution of the standard were dispensed into a 96 well plate at 50 ul/well. Then, the pre-mixed cocktail of antibody-coated magnetic beads was dispensed at 50 ul/well and incubated at room temperature for 2 h in a horizontal orbital microplate shaker at 800±500 rpm. The beads were washed using a magnetic device to prevent loss. The biotin-antibody was dispensed in 50 ul of each well and incubated at room temperature for 1 h in a shaker at 800±500 rpm. After washing, streptavidin-PE was added at 50 ul/well and incubated at room temperature for 30 min in a shaker under the same conditions. Finally, after washing, wash buffer (100 ul/well) was added to the plate and incubated in a shaker for 2 min. The Luminex™ 200 setting were set according to the manufacturer's protocol. The data was calculated with a standard five-parameter logistic nonlinear regression analysis of the data (xPonent software 4.2, USA). The levels of cytokine/chemokine are normalized to the live cell counts (1×10^5 cells/mL) and presented as concentrations per mL (pg/mL or ng/mL).

[1] = PBMC + LPS(5 ug/ml) + test article 0.001 uM, Mean
[2] = PBMC + LPS(5 ug/ml) + test article 0.001 uM, single replicates (1st, 2nd, 3rd)
[3] = PBMC + LPS(5 ug/ml) + test article 0.01 uM, Mean
[4] = PBMC + LPS(5 ug/ml) + test article 0.01 uM, single replicates (1st, 2nd, 3rd)
[5] = PBMC + LPS(5 ug/ml) + test article 0.1 uM, Mean
[6] = PBMC + LPS(5 ug/ml) + test article 0.1 uM, single replicates (1st, 2nd, 3rd)
[7] = PBMC + LPS(5 ug/ml) + test article 1 uM, Mean
[8] = PBMC + LPS(5 ug/ml) + test article 1 uM, single replicates (1st, 2nd, 3rd)
[9] = PBMC + LPS(5 ug/ml) + test article 10 uM, Mean
[10] = PBMC + LPS(5 ug/ml) + test article 10 uM, single replicates (1st, 2nd, 3rd)
[11] = PBMC + LPS(5 ug/ml) + test article 100 uM, Mean
[12] = PBMC + LPS(5 ug/ml) + test article 100 uM, single replicates (1st, 2nd, 3rd)
[13] = PBMC without LPS + test article 0.01 uM, Mean
[14] = PBMC without LPS + test article 0.01 uM, single replicates (1st, 2nd)
[15] = PBMC without LPS + test article 0.1 uM, Mean
[16] = PBMC without LPS + test article 0.1 uM, single replicates (1st, 2nd)
[17] = PBMC without LPS + test article 1 uM, Mean
[18] = PBMC without LPS + test article 1 uM, single replicates (1st, 2nd)
[19] = PBMC without LPS + test article 10 uM, Mean
[20] = PBMC without LPS + test article 10 uM, single replicates (1st, 2nd)
[21] = PBMC without LPS + test article 100 uM, Mean
[22] = PBMC without LPS + test article 100 uM, single replicates (1st, 2nd)

SMILES: CC(C)C[C@H](NC(=O)CNC(=O)[C@H](CC(=O)O)NC(=O)[C@H](CCC(N)=O)NC(=O)CNC(=O)[C@@H]1C[C@@H](O)CN1)C(=O)N[C@@H](C)C(=O)NCC(=O)N1CCC[C@H]1C(=O)N[C@@H](CCCCN)C(=O)O [YY-101] (H-[Hyp]GQDGLAGPK-OH; N-terminus and C-terminus assumed)
- Concentration, IL-17A [1]: 3.8 pg/mL
- MFI, Bead name: IL-17A [1]: 2.2
- conc/live cell, IL-17A [1]: 0.6 pg/10^5
- Concentration, IL-17A [2]: 4.3 pg/ml (2×) and 2.7 pg/ml
- MFI, Bead name: IL-17A [2]: 2.5 (2×) and 1.5
- conc/live cell, IL-17A [2]: 0.8 pg/10^5 and 0.6 pg/10^5 and 0.4 pg/10^5
- Concentration, IL-17A [3]: 4.9 pg/mL
- MFI, Bead name: IL-17A [3]: 2.8
- conc/live cell, IL-17A [3]: 0.8 pg/10^5
- Concentration, IL-17A [4]: 6.0 pg/ml (2×) and 2.7 pg/ml
- MFI, Bead name: IL-17A [4]: 3.5 (2×) and 1.5
- conc/live cell, IL-17A [4]: 0.9 pg/10^5 and 1.0 pg/10^5 and 0.4 pg/10^5
- Concentration, IL-17A [5]: 4.3 pg/mL
- MFI, Bead name: IL-17A [5]: 2.5
- conc/live cell, IL-17A [5]: 0.7 pg/10^5
- Concentration, IL-17A [6]: 6.0 pg/ml (2×) and 1.0 pg/ml
- MFI, Bead name: IL-17A [6]: 3.5 (2×) and 0.5
- conc/live cell, IL-17A [6]: 1.0 pg/10^5 (2×) and 0.2 pg/10^5
- Concentration, IL-17A [7]: 5.4 pg/mL
- MFI, Bead name: IL-17A [7]: 3.2
- conc/live cell, IL-17A [7]: 0.8 pg/10^5
- Concentration, IL-17A [8]: 4.3 pg/ml (2×) and 7.5 pg/ml
- MFI, Bead name: IL-17A [8]: 2.5 (2×) and 4.5
- conc/live cell, IL-17A [8]: 0.7 pg/10^5 and 0.6 pg/10^5 and 1.2 pg/10^5
- Concentration, IL-17A [9]: 3.3 pg/mL
- MFI, Bead name: IL-17A [9]: 1.8
- conc/live cell, IL-17A [9]: 0.5 pg/10^5
- Concentration, IL-17A [10]: 4.3 pg/ml and 2.7 pg/ml (2×)
- MFI, Bead name: IL-17A [10]: 2.5 and 1.5 (2×)
- conc/live cell, IL-17A [10]: 0.7 pg/10^5 and 0.4 pg/10^5 (2×)
- Concentration, IL-17A [11]: 1.6 pg/mL
- MFI, Bead name: IL-17A [11]: 0.8
- conc/live cell, IL-17A [11]: 0.3 pg/10^5
- Concentration, IL-17A [12]: 1.0 pg/ml (2×) and 2.7 pg/ml
- MFI, Bead name: IL-17A [12]: 0.5 (2×) and 1.5
- conc/live cell, IL-17A [12]: 0.2 pg/10^5 (2×) and 0.4 pg/10^5
- Concentration, IL-17A [13]: 7.5 pg/mL
- MFI, Bead name: IL-17A [13]: 4.5
- conc/live cell, IL-17A [13]: 1.5 pg/10^5
- Concentration, IL-17A [14]: 7.5 pg/mL
- MFI, Bead name: IL-17A [14]: 4.5
- conc/live cell, IL-17A [14]: 1.5 pg/10^5 and 1.6 pg/10^5
- Concentration, IL-17A [15]: 8.3 pg/mL
- MFI, Bead name: IL-17A [15]: 5.0
- conc/live cell, IL-17A [15]: 1.5 pg/10^5
- Concentration, IL-17A [16]: 4.3 pg/mL and 12.2 pg/mL
- MFI, Bead name: IL-17A [16]: 2.5 and 7.5
- conc/live cell, IL-17A [16]: 1.0 pg/10^5 and 2.1 pg/10^5
- Concentration, IL-17A [17]: 5.2 pg/mL
- MFI, Bead name: IL-17A [17]: 3.0
- conc/live cell, IL-17A [17]: 0.9 pg/10^5
- Concentration, IL-17A [18]: 6.0 pg/mL and 4.3 pg/mL
- MFI, Bead name: IL-17A [18]: 3.5 and 2.5
- conc/live cell, IL-17A [18]: 1.1 pg/10^5 and 0.8 pg/10^5
- Concentration, IL-17A [19]: 18.3 pg/mL
- MFI, Bead name: IL-17A [19]: 11.5
- conc/live cell, IL-17A [19]: 2.9 pg/10^5
- Concentration, IL-17A [20]: 22.9 pg/mL and 13.8 pg/mL
- MFI, Bead name: IL-17A [20]: 14.5 and 8.5
- conc/live cell, IL-17A [20]: 3.6 pg/10^5 and 2.3 pg/10^5
- Concentration, IL-17A [21]: 3.5 pg/mL
- MFI, Bead name: IL-17A [21]: 2.0
- conc/live cell, IL-17A [21]: 0.5 pg/10^5
- Concentration, IL-17A [22]: 2.7 pg/mL and 4.3 pg/mL
- MFI, Bead name: IL-17A [22]: 1.5 and 2.5
- conc/live cell, IL-17A [22]: 0.4 pg/10^5 and 0.6 pg/10^5
